# Test results published in US20210403864A1, “METHODS AND COMPOSITIONS FOR TREATING ACTIVATED G-ALPHA Q MUTANT CANCERS OR MELANOCYTIC MALIGNANCIES” (Memorial Sloan Kettering Cancer Center, priority 2018, published 2021).
# Assays:
# [1] = test system: RASGRP3, CRAF, MEK, ERK phosphorylation and cyclin D1 expression; assay: Western blot of Gαq downstream signaling in melan-a cells; format: cell-based, mouse
# Method: The last sample for each cell line was also treated with TPA for 24 hours showing rescue of the pathway.
# Samples were treated with 500 nM YM for 0, 2, 4, 8, and 24 hours with the last lane being treatment plus TPA add back.
# (§1) Immunoblotting. Lysates were harvested using SDS lysis buffer (50 mM Tris-HCL, pH 6.8, 1 mM EDTA, 150 mM NaCl, 1% SDS, […]) supplemented with fresh proteinase and phosphatase inhibitors (PhosSTOP, Roche, Basel, Switzerland; Complete EDTA-Free, Roche, Basel, Switzerland) and 1% PMSF (Sigma-Aldrich, St. Louis, Mo.). Lysates were incubated on ice for 30 minutes, sonicated for 15 minutes, and then centrifuged at max speed for 10 minutes at 4° C. Protein levels were quantified using BCA protein assay (Thermo Scientific, Waltham, Mass.). NuPAGE LDS Sample Buffer (4×) was added to a final concentration of 1×. Samples were run on NuPAGE Novex 4-12% Bis-Tris protein gels (Life Technologies, Carlsbad, Calif.), transferred electrophoretically to 0.45 μm PVDF membranes (Immobilon, EMD Millipore, Burlington, Mass.), and then blocked with StartingBlock blocking buffer (Thermo Scientific, Waltham, Mass.) for 1 hour at room temperature. Primary antibodies were incubated at 4° C. overnight in StartingBlock buffer at 1:1,000 dilution, unless noted otherwise. Primary Antibodies used in the experiments described herein are provided below:
# The effect of YM on Gαq downstream signaling was assayed, including RASGRP3 phosphorylation by PKC, phosphorylation of CRAF, MEK, and ERK (downstream of RAS) and cyclin D1 expression which integrates signaling to promote cell cycle progression.
# [2] = test system: GNAQ^Q209L-expressing melan-a cells; assay: TPA-independent cell growth, CellTiter-glo 2.0; format: cell-based, mouse; conditions: 5 days
# Method: (§2) Data are expressed as the percentage relative light units (RLU) relative to that observed with vehicle. Error bars, s.e.m. from triplicate samples.
# (§3) Data are expressed as the percentage RLU relative to that observed with vehicle. Error bars, s.e.m. from triplicate samples.
# (§4) Cell Culture and in vitro analysis. Mutation dependent melan-a cells were generated by transducing cells with cDNAs in MSCV-PURO (retrovirus) and then selecting cells with puromycin (1 μg/ml) for two days. TPA (Sigma-Aldrich, St. Louis, Mo.) was then withdrawn from cultures. Cells with activating mutations (CYSLTR2^L129Q, GNAQ^G48V/R183Q/Q209L, KRAS^G12V, and BRAF^V600E) continued to proliferate over several passages (>2 weeks) and were then validated with qRT-PCR and immunoblots. Vector and WT controls were unable to maintain proliferation after a couple passages upon TPA withdrawal. All cells were cultured in media containing 10% FBS, L-glutamine ([…]), penicillin (100 U/ml), streptomycin (100 μg/ml). Melan-a cells provided by D. Bennett, St. George's Hospital, University of London (Johnson C P, et al., PLoS One. 12(6):1-17 (2017)), were cultured in RPMI supplemented with 200 nM TPA unless otherwise noted. HEK293T (from ATCC, Manassas, Va.) cells were cultured in DMEM-Q and UVM cells were cultured in RPMI. All cells tested negative for mycoplasma. Cell growth assays and YM dose response curves were assayed using CellTiter-glo 2.0 (Promega, Madison, Wis.) at given time points or after five days of incubation with YM and readout on a Glomax Luminometer (Promega, Madison, Wis.). IC50 values were calculated using Prism 7.0 software. Growth assays were compared to day 1 readings and dose response curves were compared to vehicle. Data shown is representative of at least three independent experiments with at least three technical replicates. Dose-response curves and growth assays were analyzed using GraphPad Prism 7.0 software.
# [3] = test system: CYSLTR2^L129Q-expressing melan-a cells; assay: TPA-independent cell growth, CellTiter-glo 2.0; format: cell-based, mouse; conditions: 5 days
# Method: as §2, §3, §4
# [4] = test system: PKC and MAPK signaling (pRASGRP3, p-CRAF, p-MEK1/2, p-ERK1/2), cyclin D1 protein; assay: Western blot of downstream UVM signaling in UVM cells and A375 cells; format: cell-based, human; conditions: for inhibition of PKC and MAPK signaling and cyclin D1 protein / inhibition of MAPK targets (p-CRAF, p-MEK1/2, p-ERK1/2) / change in pRASGRP3: 500 nM YM; for inhibition of MAPK targets (p-CRAF, p-MEK1/2, p-ERK1/2): 2 hours
# Method: as §1
# Given the unexpected sensitivity of GNAQ^Q209L mutation to YM in the melan-a system, the effect of YM on three human UVM cell lines that harbored the GNAQ^Q209L/P mutation was evaluated, using the BRAF^V600E mutant A375 cutaneous melanoma cell line as a negative control.
# Mel202 cells = assay: Cell proliferation dose response, CellTiter-glo 2.0; format: cell-based, human; conditions: 5 days, approximate
# Method: as §3, §4
# [5] = test system: SK-MEL-2 cells (NRAS^Q61R); assay: as above; format: cell-based, human; conditions: 5 days
# Method: as §3, §4
# A549 cells (KRAS^G12S) = assay: as above; format: cell-based, human; conditions: 5 days
# Method: as §3, §4
# Mel270 cells = assay: as above; format: cell-based, human; conditions: 5 days, approximate
# Method: as §3, §4
# Mel290 cells = assay: as above; format: cell-based, human; conditions: 5 days, UVM line lacking GNAQ/11 mutations
# Method: as §3, §4
# OMM1.3 cells = assay: as above; format: cell-based, human; conditions: 5 days, approximate
# Method: as §3, §4
# Mel285 cells = assay: as above; format: cell-based, human; conditions: 5 days, UVM line lacking GNAQ/11 mutations
# Method: as §3, §4
# [6] = test system: A375 cells (BRAF^V600E cutaneous melanoma); assay: as above; format: cell-based, human; conditions: 5 days
# Method: as §3, §4
substance,measurement,setting,value
YM-254890,downstream signaling targets with TPA supplementation,"[1]; 24 hours after YM treatment, plus TPA",completely rescued
same,inhibition of MAPK signaling,"[1]; BRAF^V600E-expressing melan-a cells, 500 nM YM",ineffective
same,"inhibition of downstream signaling targets (p-RASGRP3, p-CRAF, p-MEK, p-ERK, cyclin D1)","[1]; CYSLTR2^L129Q, GNAQ^G48V, GNAQ^R183Q and GNAQ^Q209L-expressing melan-a cells, 500 nM YM, 0-24 hours",inhibited
same,kinetics of inhibition of downstream signaling compared to CYSLTR2^L129Q and GNAQ^G48V-expressing cells,"[1]; GNAQ^Q209L-expressing melan-a cells, 500 nM YM",slower kinetics
same,kinetics of inhibition of downstream signaling compared to CYSLTR2^L129Q and GNAQ^G48V-expressing cells,"[1]; GNAQ^R183Q-expressing melan-a cells, 500 nM YM",slower kinetics
same,inhibition of MAPK signaling,"[1]; KRAS^G12V-expressing melan-a cells, 500 nM YM",ineffective
same,YM-mediated growth inhibition in the presence of TPA,[2]; with TPA,rescued
same,sensitivity of TPA-independent cell growth to YM,[2]; without TPA,modestly less sensitive
same,YM-mediated growth inhibition in the presence of TPA,[3]; with TPA,rescued
same,sensitivity of TPA-independent cell growth to YM,[3]; without TPA,sub-nanomolar sensitivity
same,inhibition of PKC and MAPK signaling and cyclin D1 protein,[4]; A375 cells (negative control),not in A375 cells
same,p-ERK1/2 level,"[4]; Mel202 cells, 24 hours",rebound
same,inhibition of pRASGRP3,"[4]; Mel202 cells, earlier time points, in contrast to Mel270 and OMM1.3",greater inhibition
same,inhibition of MAPK targets,"[4]; Mel202 cells, in contrast to Mel270 and OMM1.3",decreased inhibition
same,"inhibition of MAPK targets (p-CRAF, p-MEK1/2, p-ERK1/2)",[4]; Mel270 cells,significant inhibition
same,change in pRASGRP3,"[4]; Mel270 cells, 24 hours",small decreases
same,"inhibition of MAPK targets (p-CRAF, p-MEK1/2, p-ERK1/2)",[4]; OMM1.3 cells,significant inhibition
same,change in pRASGRP3,"[4]; OMM1.3 cells, 24 hours",small decreases
same,inhibition of PKC and MAPK signaling and cyclin D1 protein,[4]; UVM cells,inhibited
same,IC50,Mel202 cells,~0.1 µM
same,sensitivity of proliferation to YM,[5],resistant
same,sensitivity of proliferation to YM,A549 cells (KRAS^G12S),resistant
same,IC50,Mel270 cells,~0.1 µM
same,sensitivity of proliferation to YM,Mel290 cells,resistant
same,IC50,OMM1.3 cells,~0.1 µM
same,sensitivity of proliferation to YM,Mel285 cells,resistant
same,sensitivity of proliferation to YM,[6],resistant
